Measurements: article PMC10518255, “A first-in-class pan-lysyl oxidase inhibitor impairs stromal remodeling and enhances gemcitabine response and survival in pancreatic cancer” (Nature Cancer, 2023)
Where “and” joins values, the source holds several entries; their conditions need not be identical. Identical values can stand only once.

How the values were obtained:
Fibroblast LOX = target: T1, Fibroblast LOX (Homo sapiens, UniProt P28300); assay: Lysyl oxidase enzymatic activity, fluorescence-based assay, IC50; format: biochemical; settings: replicates
T1 construct: endogenous in cells
T1 sequence (P28300 169-417): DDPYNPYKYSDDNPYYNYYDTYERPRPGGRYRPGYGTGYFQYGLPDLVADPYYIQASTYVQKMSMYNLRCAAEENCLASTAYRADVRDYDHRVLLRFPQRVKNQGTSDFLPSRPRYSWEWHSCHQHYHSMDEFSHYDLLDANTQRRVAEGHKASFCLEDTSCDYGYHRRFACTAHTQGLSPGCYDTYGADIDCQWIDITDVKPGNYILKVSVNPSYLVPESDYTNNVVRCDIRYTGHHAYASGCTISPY
Excerpt: (§1) Data are presented as mean ± s.d. […] Data presented as mean ± s.d. […] Source data TEXT PRINTED IN THE PICTURE: (b) PXS-5505: Recombinant DAO IC50 (nM): >30,000; Recombinant SSAO/VAP1 IC50 (nM): >30,000; Recombinant MAO-A IC50 (nM): >30,000; Recombinant MAO-B IC50 (nM): >30,000 | (f) PXS-5505: Fibroblast LOX IC50 (nM): 4,930; Recombinant LOXL-1 IC50 (nM): 1,590; Recombinant LOXL-2 IC50 (nM): 570; Recombinant LOXL-3 IC50 (nM): 1,800; Recombinant LOXL-4 IC50 (nM): 190
(§2) In characterizing PXS-5505, the half-maximum inhibitory concentration (IC50) values for each of the lysyl oxidase family members were determined by measuring enzymatic activity using a fluorescence-based assay.
(§3) Data presented as mean values +/− SD. f. […] Data presented as mean values +/− SD. […] Data presented as mean values +/− SD. […] Data presented as mean values +/− SD. Ordinary one-way ANOVA for multiple comparison test performed. Source data

LOXL2 = target: T2, LOXL2 (Homo sapiens, UniProt Q9Y4K0); assay: as above; format: biochemical
T2 sequence (Q9Y4K0 26-774): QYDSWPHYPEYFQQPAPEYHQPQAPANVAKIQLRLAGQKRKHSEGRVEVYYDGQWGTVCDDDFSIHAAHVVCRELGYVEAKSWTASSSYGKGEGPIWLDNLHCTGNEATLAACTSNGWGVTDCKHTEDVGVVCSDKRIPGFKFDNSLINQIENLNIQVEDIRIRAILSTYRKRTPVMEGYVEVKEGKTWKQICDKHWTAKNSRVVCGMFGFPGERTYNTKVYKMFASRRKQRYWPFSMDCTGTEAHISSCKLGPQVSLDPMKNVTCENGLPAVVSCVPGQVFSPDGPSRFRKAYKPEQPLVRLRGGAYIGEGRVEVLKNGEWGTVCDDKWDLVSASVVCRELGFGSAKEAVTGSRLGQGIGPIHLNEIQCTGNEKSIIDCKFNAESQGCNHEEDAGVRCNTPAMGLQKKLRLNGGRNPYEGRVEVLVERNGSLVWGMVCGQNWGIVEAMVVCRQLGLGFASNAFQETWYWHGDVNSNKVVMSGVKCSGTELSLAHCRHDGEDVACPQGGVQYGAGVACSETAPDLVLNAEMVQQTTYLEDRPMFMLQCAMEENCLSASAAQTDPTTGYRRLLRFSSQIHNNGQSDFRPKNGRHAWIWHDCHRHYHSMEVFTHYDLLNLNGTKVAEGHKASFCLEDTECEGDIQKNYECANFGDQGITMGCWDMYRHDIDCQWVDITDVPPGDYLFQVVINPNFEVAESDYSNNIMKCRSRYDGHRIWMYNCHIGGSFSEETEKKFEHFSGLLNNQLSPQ
Excerpt: as §1, §2, §3

SMILES: Cl.Cl.NC/C=C(\F)CS(=O)(=O)c1cccc2cccnc12.O [PXS-5505, (Z)-3-fluoro-4-(quinolin-8-ylsulfonyl)but-2-en-1-amine dihydrochloride monohydrate]
- LOX activity, IC50 determination curve (Fibroblast LOX; log(Concentration) -5, 10 µM): 3.883 and 10.1684 and 20.9265 and 5.02 and 4.758 and 6.391 and 6.186 and 6.029 and 20.5369 and 17.2584 and 29.8226 and 3.623 and 26.5163 and 8.055 and 5.279 and 6.036 and 3.683 and 8.994 and 2.62 and 5.888
- LOX activity, IC50 determination curve (Fibroblast LOX; log(Concentration) -5.47712, 3.333 µM): 26.3616 and 38.5547 and 37.4589 and 30.4803 and 26.5908 and 26.0097 and 25.4086 and 23.2841 and 47.0211 and 41.5569 and 54.9662 and 30.9927 and 55.9602 and 33.6452 and 26.0055 and 25.2076 and 21.7888 and 33.3569 and 26.6311 and 45.3445
- LOX activity, IC50 determination curve (Fibroblast LOX; log(Concentration) -5.95424, 1.111 µM): 65.9487 and 69.3911 and 60.7313 and 65.7321 and 64.7348 and 60.684 and 73.4741 and 69.7585 and 72.3228 and 61.8434 and 76.5191 and 70.4394 and 64.4999 and 59.1047 and 54.3417 and 66.355 and 58.9798 and 55.4122
- LOX activity, IC50 determination curve (Fibroblast LOX; log(Concentration) -6.43136, 0.3704 µM): 87.2177 and 88.3395 and 79.2811 and 66.9609 and 65.4146 and 85.3577 and 83.5816 and 83.3016 and 85.8139 and 85.7077 and 63.7427 and 87.2402 and 81.0139 and 93.5693 and 81.2357 and 80.2494 and 78.0142 and 85.6866 and 82.1322 and 88.2018
- LOX activity, IC50 determination curve (Fibroblast LOX; log(Concentration) -6.90849, 0.1235 µM): 96.5523 and 90.6919 and 85.8494 and 82.293 and 94.8665 and 94.3951 and 93.9784 and 95.943 and 87.9121 and 85.7594 and 95.8669 and 88.1459 and 102.086 and 95.1473 and 93.948 and 87.9189 and 98.6889 and 90.9023 and 91.7994
- activity at 0.1235 µM (Fibroblast LOX; read-out: LOX activity, IC50 determination curve, log(Concentration) -6.90849): 99.8%
- activity at 0.01372 µM (Fibroblast LOX; read-out: LOX activity, IC50 determination curve, log(Concentration) -7.86273): 104%
- activity at 0.004572 µM (Fibroblast LOX; read-out: LOX activity, IC50 determination curve, log(Concentration) -8.33985): 102%
- activity at 0.001524 µM (Fibroblast LOX; read-out: LOX activity, IC50 determination curve, log(Concentration) -8.81697): 108%
- activity at 0.000508 µM (Fibroblast LOX; read-out: LOX activity, IC50 determination curve, log(Concentration) -9.29409): 105%
- IC50 (LOXL2): 570 nM
- LOXL2 activity, IC50 determination curve (LOXL2; log(Concentration) -4.52288, replicates, 30 µM): 0.9304 and 1.355 and 0.47 and 0.4711 and 0.6366 and 0.3339 and 2.414 and 1.859 and 1.553 and 2.478
- LOXL2 activity, IC50 determination curve (LOXL2; log(Concentration) -5, replicates, 10 µM): 0.791 and 0.552 and 3.171 and 2.146 and 2.6 and 2.324 and 4.194 and 15.0185 and 14.1707 and 8.37
- LOXL2 activity, IC50 determination curve (LOXL2; log(Concentration) -5.47712, replicates, 3.333 µM): 9.121 and 8.824 and 12.3933 and 6.2776 and 9.388 and 8.093 and 13.2114 and 39.9206 and 33.7785 and 20.6899
- LOXL2 activity, IC50 determination curve (LOXL2; log(Concentration) -5.95424, replicates, 1.111 µM): 20.2389 and 25.6139 and 36.0073 and 28.0488 and 26.7357 and 24.6346 and 38.4827 and 46.4776 and 45.1428 and 35.5222
- LOXL2 activity, IC50 determination curve (LOXL2; log(Concentration) -6.43136, replicates, 0.3704 µM): 49.7826 and 57.6495 and 70.9317 and 50.7979 and 55.1496 and 52.5589 and 67.2849 and 60.9084 and 60.7641 and 53.7886
- LOXL2 activity, IC50 determination curve (LOXL2; log(Concentration) -6.90849, replicates, 0.1235 µM): 78.7223 and 82.1964 and 89.3928 and 77.9843 and 81.0351 and 77.3849 and 88.1863 and 70.6401 and 64.9941 and 65.916
- LOXL2 activity, IC50 determination curve (LOXL2; log(Concentration) -7.38561, replicates, 0.04115 µM): 84.6124 and 93.105 and 97.9338
- LOXL2 activity, IC50 determination curve (LOXL2; log(Concentration) -7.86273, replicates, 0.01372 µM): 94.5455 and 97.658 and 97.7862 and 96.4122 and 96.1969 and 92.4844 and 101.479 and 86.0269 and 80.2817 and 84.4595
- LOXL2 activity, IC50 determination curve (LOXL2; log(Concentration) -8.33985, replicates, 0.004572 µM): 93.002 and 104.67 and 103.129 and 98.6809 and 97.1184 and 102.587 and 94.1262 and 87.5963 and 94.8578
- LOXL2 activity, IC50 determination curve (LOXL2; log(Concentration) -8.81697, replicates, 0.001524 µM): 103.323 and 104.142 and 98.8815 and 101.169 and 98.4227 and 104.725 and 98.8974 and 89.6166 and 94.7795
- LOXL2 activity, IC50 determination curve (LOXL2; log(Concentration) -9.29409, replicates, 0.000508 µM): 94.0836 and 101.708 and 97.4085 and 100.105 and 99.6157 and 105.819 and 98.717 and 92.3043 and 96.8459
- activity at 0.004572 µM (LOXL2; read-out: LOXL2 activity, IC50 determination curve, log(Concentration) -8.33985, replicates): 91.8%
- activity at 0.001524 µM (LOXL2; read-out: LOXL2 activity, IC50 determination curve, log(Concentration) -8.81697, replicates): 95.1%
- activity at 0.000508 µM (LOXL2; read-out: LOXL2 activity, IC50 determination curve, log(Concentration) -9.29409, replicates): 92%
